Experimental data: patent US5807535A, “Metal complexes of hydroxyaryl containing aminocarboxylic acid chelating agents” (Australian Nuclear Science & Technology Organisation, priority 1992, dated 1998)
Where two headings read alike, the source gives them in different places.

Key:
[1] = Biodistribution of compound No. 6 in mice (Table 6); type: in vivo, Balb/c mice; settings: mouse; for tissue uptake at 0.05 h: 3 min
Text: (§1) A series of derivatives incorporating carboxyl and phenolate donor groups (1-6) were synthesised by literature method and their radiolabelling characteristic and biological behaviour evaluated. Initial work involved an investigation of radiochemical properties of the ^99m Tc complexes of the ligands and their biodistribution in rats and mice (see Tables 1-6 and 8-12).
(§2) A typical method of radiolabelling of the chelator was achieved by dissolving the chelator in a basic solution of saline. The pH was then adjusted to approx. 6 with HCl. Excess stannous chloride was added to the resultant solution followed by one equivalent volume of sodium ^99m TcO4 (10-50 mCi/ml). Final concentration of the chelator was approx. 1 mg/ml. The efficacy of labelling was determined by ITLC-SG. For each product only one main radiochemical species was observed. Each complex was diluted to 15 μCi/100 μl with saline. […] (See FIGS. 1A and 1B).

[2] = Biodistribution of 99mTc complexes in mice; type: in vivo, Balb/c mice
Text: as §1, §2

[3] = Biodistribution of 67Ga complexes in mice; type: in vivo, balb/c mice
Procedure: To ligand (50 μL, 10 mg/mL, 0.2 M NaOAc, […]) was added ^67 Ga citrate (18.5 MBq) and the resultant mixture diluted to 1 mL (0.2 M NaOAc, pH 7). The pH was adjusted to 12 with 1 M NaOH (20 μL) and heated at 40° C. for 40 min. The final volume was adjusted (to 5 mL) with saline and sterilised by filtering through a 0.22 μm filter.
Each animal was injected via tail vein with ^67 Ga complex (100 μL, ~3.7×10^5 Bq). Animals were sacrificed at various time intervals (5 animals per time point/6 time points). Data are illustrated in FIG. 26-30 and in Tables 13-17.
Each ^67 Ga-ligand complex has been evaluated in balb/c mice. […] (see FIG. 26-30).

[4] = lymphoma diagnosis; cited from earlier work
[5] = blood, read-out: biodistribution blood
[6] = bone, read-out: biodistribution bone
[7] = brain, read-out: biodistribution brain
[8] = heart, read-out: biodistribution heart
[9] = kidneys, read-out: biodistribution kidneys
[10] = liver, read-out: biodistribution liver
[11] = lungs, read-out: biodistribution lungs
[12] = muscle, read-out: biodistribution muscle
[13] = pancreas, read-out: biodistribution pancreas
[14] = skin, read-out: biodistribution skin
[15] = spleen, read-out: biodistribution spleen
[16] = stomach, read-out: biodistribution stomach
[17] = tail, read-out: biodistribution tail
[18] = thymus, read-out: biodistribution thymus
[19] = thyroid, read-out: biodistribution thyroid
[20] = total git, read-out: biodistribution tot GIT
[21] = urine, read-out: biodistribution urine

For `Cc1cc(C)c(O)c(NC(=O)CN(CCN(CC(=O)O)CC(=O)Nc2cc(C)cc(C)c2O)CC(=O)O)c1` [Compound 6], the tissue uptake at 0.05 h [1, 5] was 10.7 %ID/g, the tissue uptake at 5 min [1, 5] was 7.83 %ID/g and the tissue uptake at 0.05 h [1, 6] was 1.91 %ID/g. It also gave a tissue uptake at 5 min [1, 6] of 1.39 %ID/g, a tissue uptake at 0.05 h [1, 7] of 0.74 %ID/g and a tissue uptake at 5 min [1, 7] of 0.35 %ID/g. For the same compound, the tissue uptake at 0.05 h [1, 8] was 3.84 %ID/g, the tissue uptake at 5 min [1, 8] was 2.8 %ID/g and the tissue uptake at 0.05 h [1, 9] was 24.1 %ID/g. It also gave a tissue uptake at 5 min [1, 9] of 18.4 %ID/g, a tissue uptake at 0.05 h [1, 10] of 6.52 %ID/g and a tissue uptake at 5 min [1, 10] of 9.39 %ID/g. For the same compound, the tissue uptake at 0.05 h [1, 11] was 6.38 %ID/g, the tissue uptake at 5 min [1, 11] was 4.66 %ID/g and the tissue uptake at 0.05 h [1, 12] was 1.81 %ID/g. The tissue uptake at 5 min [1, 12] was 1.26 %ID/g, the tissue uptake at 0.05 h [1, 13] was 1.86 %ID/g and the tissue uptake at 5 min [1, 13] was 1.41 %ID/g. The tissue uptake at 0.05 h [1, 14] was 3.96 %ID/g, the tissue uptake at 5 min [1, 14] was 3.47 %ID/g and the tissue uptake at 0.05 h [1, 15] was 2.24 %ID/g. It also gave a tissue uptake at 5 min [1, 15] of 1.78 %ID/g, a tissue uptake at 0.05 h [1, 16] of 1.78 %ID/g and a tissue uptake at 5 min [1, 16] of 6.85 %ID/g. For the same compound, the tissue uptake at 0.05 h [1, 17] was 8.94 %ID/g, the tissue uptake at 5 min [1, 17] was 6.18 %ID/g and the tissue uptake at 0.05 h [1, 18] was 3.67 %ID/g. For the same compound, the tissue uptake at 5 min [1, 18] was 2.5 %ID/g, the tissue uptake at 0.05 h [1, 19] was 5.76 %ID/g and the tissue uptake at 5 min [1, 19] was 3.73 %ID/g. The tissue uptake at 0.05 h [1, 20] was 1.03 %ID/g, the tissue uptake at 5 min [1, 20] was 2.12 %ID/g and the tissue uptake at 0.05 h [1, 21] was 1.3 %ID/g. The tissue uptake at 5 min [1, 21] was 0.95 %ID/g, the “biodistribution GIT” value ([2]; 1 min) was 3.58 % Injected dose and the biodistribution bladder ([2]; 1 min) was 0.06 % Injected dose. It also gave a biodistribution blood ([2]; 1 min) of 41.63 % Injected dose, a biodistribution bone ([2]; 1 min) of 7.37 % Injected dose and a biodistribution heart ([2]; 1 min) of 0.46 % Injected dose. For the same compound, the biodistribution kidney ([2]; 1 min) was 7.57 % Injected dose, the biodistribution liver ([2]; 1 min) was 22.44 % Injected dose and the biodistribution lungs ([2]; 1 min) was 1.71 % Injected dose. The biodistribution muscle ([2]; 1 min) was 13.95 % Injected dose, the biodistribution skin ([2]; 1 min) was 8.13 % Injected dose and the biodistribution spleen ([2]; 1 min) was 0.2 % Injected dose. For the same compound, the biodistribution stomach ([2]; 1 min) was 0.4 % Injected dose, the biodistribution tail ([2]; 1 min) was 8.46 % Injected dose and the biodistribution urine ([2]; 1 min) was 0.07 % Injected dose. The “biodistribution GIT” value ([2]; 3 min) was 11.98 % Injected dose, the biodistribution bladder ([2]; 3 min) was 0.08 % Injected dose and the biodistribution blood ([2]; 3 min) was 15.59 % Injected dose. For the same compound, the biodistribution bone ([2]; 3 min) was 3.5 % Injected dose, the biodistribution heart ([2]; 3 min) was 0.2 % Injected dose and the biodistribution kidney ([2]; 3 min) was 5.68 % Injected dose. The biodistribution liver ([2]; 3 min) was 35.66 % Injected dose, the biodistribution lungs ([2]; 3 min) was 0.65 % Injected dose and the biodistribution muscle ([2]; 3 min) was 7.87 % Injected dose. The biodistribution skin ([2]; 3 min) was 8.31 % Injected dose, the biodistribution spleen ([2]; 3 min) was 0.09 % Injected dose and the biodistribution stomach ([2]; 3 min) was 0.43 % Injected dose. For the same compound, the biodistribution tail ([2]; 3 min) was 7.37 % Injected dose, the biodistribution urine ([2]; 3 min) was 0.81 % Injected dose and the “biodistribution GIT” value ([2]; 5 min) was 27.85 % Injected dose. For the same compound, the biodistribution bladder ([2]; 5 min) was 0.07 % Injected dose, the biodistribution blood ([2]; 5 min) was 10.31 % Injected dose and the biodistribution bone ([2]; 5 min) was 3.86 % Injected dose. It also gave a biodistribution heart ([2]; 5 min) of 0.16 % Injected dose, a biodistribution kidney ([2]; 5 min) of 4.53 % Injected dose and a biodistribution liver ([2]; 5 min) of 30.85 % Injected dose. For the same compound, the biodistribution lungs ([2]; 5 min) was 0.69 % Injected dose, the biodistribution muscle ([2]; 5 min) was 7.24 % Injected dose and the biodistribution skin ([2]; 5 min) was 9.28 % Injected dose. It also gave a biodistribution spleen ([2]; 5 min) of 0.14 % Injected dose, a biodistribution stomach ([2]; 5 min) of 5.42 % Injected dose and a biodistribution tail ([2]; 5 min) of 7.64 % Injected dose. The biodistribution urine ([2]; 5 min) was 0.59 % Injected dose, the “biodistribution GIT” value ([2]; 10 min) was 45.71 % Injected dose and the biodistribution bladder ([2]; 10 min) was 0.23 % Injected dose. For the same compound, the biodistribution blood ([2]; 10 min) was 6.34 % Injected dose, the biodistribution bone ([2]; 10 min) was 2.76 % Injected dose and the biodistribution heart ([2]; 10 min) was 0.08 % Injected dose. It also gave a biodistribution kidney ([2]; 10 min) of 2.44 % Injected dose, a biodistribution liver ([2]; 10 min) of 16.04 % Injected dose and a biodistribution lungs ([2]; 10 min) of 0.45 % Injected dose. The biodistribution muscle ([2]; 10 min) was 5.27 % Injected dose, the biodistribution skin ([2]; 10 min) was 5.17 % Injected dose and the biodistribution spleen ([2]; 10 min) was 0.07 % Injected dose. For the same compound, the biodistribution stomach ([2]; 10 min) was 3.42 % Injected dose, the biodistribution tail ([2]; 10 min) was 4.77 % Injected dose and the biodistribution urine ([2]; 10 min) was 1.231 % Injected dose. For the same compound, the “biodistribution GIT” value ([2]; 30 min) was 51.18 % Injected dose, the biodistribution bladder ([2]; 30 min) was 0.2 % Injected dose and the biodistribution blood ([2]; 30 min) was 9.66 % Injected dose. It also gave a biodistribution bone ([2]; 30 min) of 2.54 % Injected dose, a biodistribution heart ([2]; 30 min) of 0.11 % Injected dose and a biodistribution kidney ([2]; 30 min) of 1.9 % Injected dose. The biodistribution liver ([2]; 30 min) was 14.05 % Injected dose, the biodistribution lungs ([2]; 30 min) was 0.39 % Injected dose and the biodistribution muscle ([2]; 30 min) was 6.92 % Injected dose. It also gave a biodistribution skin ([2]; 30 min) of 4.23 % Injected dose, a biodistribution spleen ([2]; 30 min) of 0.06 % Injected dose and a biodistribution stomach ([2]; 30 min) of 1.73 % Injected dose. The biodistribution tail ([2]; 30 min) was 2.41 % Injected dose, the biodistribution urine ([2]; 30 min) was 1.64 % Injected dose and the biodistribution bone ([3]; 1 min) was 4.33 % ID. For the same compound, the biodistribution kidney ([3]; 1 min) was 9.95 % ID, the biodistribution liver ([3]; 1 min) was 26.45 % ID and the biodistribution muscle ([3]; 1 min) was 17.93 % ID. It also gave a biodistribution skin ([3]; 1 min) of 13.91 % ID, a biodistribution spleen ([3]; 1 min) of 0.22 % ID and a biodistribution bone ([3]; 3 min) of 2.41 % ID. The biodistribution kidney ([3]; 3 min) was 5.24 % ID, the biodistribution liver ([3]; 3 min) was 34.06 % ID and the biodistribution muscle ([3]; 3 min) was 10.67 % ID. It also gave a biodistribution skin ([3]; 3 min) of 12.80 % ID, a biodistribution spleen ([3]; 3 min) of 0.08 % ID and a biodistribution bone ([3]; 5 min) of 1.67 % ID. It also gave a biodistribution kidney ([3]; 5 min) of 3.36 % ID, a biodistribution liver ([3]; 5 min) of 30.21 % ID and a biodistribution muscle ([3]; 5 min) of 6.35 % ID. For the same compound, the biodistribution skin ([3]; 5 min) was 10.62 % ID, the biodistribution spleen ([3]; 5 min) was 0.04 % ID and the biodistribution bone ([3]; 10 min) was 0.96 % ID. For the same compound, the biodistribution kidney ([3]; 10 min) was 1.98 % ID, the biodistribution liver ([3]; 10 min) was 18.58 % ID and the biodistribution muscle ([3]; 10 min) was 4.37 % ID. It also gave a biodistribution skin ([3]; 10 min) of 5.76 % ID, a biodistribution spleen ([3]; 10 min) of 0.03 % ID and a biodistribution bone ([3]; 30 min) of 0.34 % ID. It also gave a biodistribution kidney ([3]; 30 min) of 0.79 % ID, a biodistribution liver ([3]; 30 min) of 3.15 % ID and a biodistribution muscle ([3]; 30 min) of 7.73 % ID. The biodistribution skin ([3]; 30 min) was 0.86 % ID, the biodistribution spleen ([3]; 30 min) was 0.01 % ID and the biodistribution kidney ([3]; 120 min) was 0.06 % ID. The biodistribution liver ([3]; 120 min) was 1.33 % ID, the biodistribution muscle ([3]; 120 min) was 1.85 % ID and the biodistribution skin ([3]; 120 min) was 0.10 % ID. For the same compound, the biodistribution spleen ([3]; 120 min) was 0.00 % ID.
For `O=C([O-])CC(O)(CC(=O)[O-])C(=O)[O-].[Ga+3]` [Ga-67 citrate], the clearance [4] is listed as “clears slowly from the blood, through the liver, accumulating in the bowel” and the “uptake at the disease sites” value [4] is listed as “relatively fast and selective uptake at the disease sites”.
